Results reported in patent publication US6538107B1, “G protein coupled receptor protein production, and use thereof” (Takeda Chemical Industries, Ltd., priority 1994, dated 2003).

Tested on: oocytes injected with H2O
Assay: Electrophysiological measurement in control Xenopus oocytes injected with H2O instead of pMAH2-17 cRNA
Type: cell-based
Details: ATP stimulation, initial membrane potential −60 mV

Structure (SMILES): Nc1ncnc2c1ncn2[C@@H]1O[C@H](COP(=O)(O)OP(=O)(O)OP(=O)(O)O)[C@@H](O)[C@H]1O [ATP, Adenosine triphosphate]
- inward currents (current changes of the membrane) evoked by ATP: such a current was not observed
